From patent US20100130579A1, “CANCER THERAPY” (Georgetown University, priority 2006, published 2010)
Entries after “also recorded” stand apart in the source; their conditions may differ.

Key:
Type in all cases: cell-based
[1] = test system: DNA synthesis; test: Inhibition of DNA synthesis / anticancer effects of KED compounds; conditions: in the assay used (inhibition of DNA synthesis, FIGS. 7A-7D)
Method: FIGS. 7A-7D. FIGS. 7A-7D show the dose-dependent inhibition of DNA synthesis with KED compounds.
(§1) Anticancer effects and activation of a tumor suppressor gene, RASSF1A) KED-3-63-1, KED 3-63-2 and KED 3-81 were assessed.

[2] = test system: cyclin D1; test: Cyclin D1 expression after KED compound; conditions: as a result of RASSF1A induction
Method: as §1

[3] = test system: RASSF1A; test: Activation of tumor suppressor gene RASSF1A by KED compounds
Method: as §1

| SMILES | anticancer effects [1] | cyclin D1 expression [2] | induction of RASSF1A [3] |
| --- | --- | --- | --- |
| COc1ccc2c(c1)[nH]c1c(C)c3c(cc12)C=CC(C)(CCC=C(C)C)O3 (centres unmarked) [KED-3-63-1] | have anti-cancer effects; also recorded: have anticancer effects | down-regulated | induced RASSF1A |
| COc1ccc2c(c1)[nH]c1c(C)c(OCc3ccccc3)ccc12 [KED-3-63-2] | does not; also recorded: no anti-cancer effects |  |  |
| COc1ccc2c(c1)[nH]c1cc(OCc3ccccc3)c(C)cc12 [KED-3-81] | have anti-cancer effects; also recorded: have anticancer effects |  |  |
